Patent publication US20220143222A1, “SUBCUTANEOUS AND INTRAMUSCULAR ADMINISTRATION OF PYRAZINE COMPOUNDS” (MediBeacon Inc., priority 2020, published 2022)

Test: Storage of concentrated MB-102 salt solution at 4° C. (precipitation)
Format: physicochemical
Settings: 64.2 wt % solution in water, 4° C. for 7 days
Procedure: MB-102 (0.300 g, 0.81 mmol), was placed in a vial (4.0 mL). Water was added (0.8 mL, D.I.) and the mixture sonicated for a brief period of time. To the mixture was added aqueous 6.25 N NaOH (2 equivalents, 1.62 mmol, 0.24 mL, added in portions; 0.020 mL×12 to effect solution) with stirring and brief periods of sonication. […] The final concentration was 300 mg (2R,2′R)-2,2′-((3,6-diaminopyrazine-2,5-dicarbonyl)bis(azanediyl))bis(3-hydroxypropanoic acid), MB-102 per mL water (w/v).
MB-102 (0.30 g, 0.81 mmol) was weighed into a 5 mL v-vial equipped with a Teflon-covered magnetic spin vane. Choline hydroxide in water (Aldrich, 0.43 g of 46 wt %, 1.62 mmol) was added portion-wise with stirring until a solution was obtained. The total weight of the solution was 0.73 g or 64.2 wt % MB-102 di-choline salt (MW: 578.6).

With `C[N+](C)(C)CCO.C[N+](C)(C)CCO.Nc1nc(C(=O)NC(CO)C(=O)[O-])c(N)nc1C(=O)NC(CO)C(=O)[O-]` (stereo not shown) [MB-102 di-choline salt] the precipitation on storage was “no precipitation”.
